Key:
[1] = test system: phosphorylation of CHK2 (Thr68) in HCT116 cells; test: Cellular pCHK2 assay, bleomycin-induced phosphorylation of CHK2 (phospho-Thr68), immunofluorescence high content; assay type: cell-based, human; settings: 10 μM bleomycin, 4 h
From the text: For the identification of substances which inhibit the phosphorylation of the protein kinase CHK2 at the amino acid threonine 68, an immunofluorescence-based “high content” analysis assay was used in HCT116 cells.
In vitro cell-based immunofluorescence assay for the identification of inhibitors of bleomycin-induced phosphorylation of CHK2 (phospho-Thr68) in the human colon carcinoma cell line HCT116:
HCT116 cells are sown out in a defined cell density in 384-well plates in culture medium (DMEM high glucose, 2 mM GlutaMax, 1 mM Na pyruvate, 10% FCS) and incubated overnight at 37° C. and 10% of CO2. […] After incubation for four hours at 37° C. and 10% of CO2, the cells are fixed (5 min, 4% formaldehyde in PBS), permeabilised (10 min, 0.2% Triton X-100 in PBS) and, after blocking of nonspecific binding sites (10% goat serum, 1% BSA in PBS), incubated overnight at 4° C. with a specific anti-pCHK2 antibody (cell signalling #2661). pCHK2 (Thr68) is determined using an Alexa488-labelled secondary anti-rabbit IgG antibody. […] The pCHK2 signal is detected using a high-content imager (Molecular Devices IMX Ultra) and automatic image analysis using the MetaXpress software belonging to the instrument. The number of cell nuclei which have a pCHK2 signal above a defined background is determined.

PI3K p110β/p85α (human) = PI3K p110β/p85α (human) (Homo sapiens (Human), UniProt P42338); test: PI3K p110β/p85α (human), non-radioactive assay (HTRF); assay type: biochemical; settings: ATM versus PI3Kbeta
Description: PI3K p110β/p85α (Human), Non-Radioactive Assay
(§1) PI3K p110β/p85α (human) was incubated in an assay buffer comprising 10 μM phosphatidylinositol 4,5-bisphosphate and MgATP (concentration as necessary). The reaction was initiated by addition of MgATP solution. After an incubation time of 30 min at room temperature, the reaction was stopped by addition of a solution consisting of EDTA and biotinylated phosphatidylinositol 3,4,5-trisphosphate. Finally, the detection buffer, consisting of a europium-labelled anti-GST monoclonal antibody, a GST-labelled GRP1 PH domain and streptavidin allophycocyanin, was added. The plate was read out via homogeneous time-resolved fluorescence (HTRF) and the corresponding signals were evaluated via the formula HTRF=10000×(Em665 nm/Em620 nm).

[2] = molecular target: human recombinant ATM (ataxia telangiectasia mutated) kinase (Homo sapiens (Human), UniProt Q13315); test: ATM kinase assay, determination of ATM inhibition (IC50 ATM), TR-FRET; assay type: biochemical; settings: 10 μM ATP, p53 substrate
Description: ATM Kinase Assay—Determination of ATM Inhibition (IC50 ATM):
The IC50 value was determined with the aid of a biochemical ATM kinase assay. The assay consists of two steps: the enzymatic reaction and the detection step. Firstly, ATM (ataxia telangiectasia mutated) protein and the test substance are incubated at different concentrations with addition of substrate protein p53 and ATP. ATM mediates the phosphorylation of p53 at several positions, including at amino acid S15. The amount of phosphorylated p53 is determined with the aid of specific antibodies and the TR-FRET technique. The enzymatic ATM assay is carried out as TR-FRET (HTRF™, Cisbio Bioassays) based 384-well assay. In the first step, purified human recombinant ATM (human ATM, full length, GenBank ID NM_000051, expressed in a mammal cell line) is incubated in assay buffer for 15 minutes with the ATM inhibitor in various concentrations and without test substance as negative or neutral control. The assay buffer comprises 25 mM HEPES pH 8.0, 10 mM Mg(CH3COO)2, 1 mM MnCl2, 0.1% BSA and 0.01% Brij® 35, 5 mM dithiothreitol (DTT). […] After incubation, usually for 2 hours (between 1.5 and 15 h), for signal development, the plates are analysed in a plate reader (EnVision, PerkinElmer) using TRF mode (and with laser excitation). […]

mTOR (human) = mTOR (human) (Homo sapiens (Human), UniProt P42345); test: mTOR (human) radiometric kinase assay; assay type: biochemical; settings: ATM versus mTOR
Description: Furthermore, the effect, in particular inhibition, of other kinases and thus the selectivity of the compounds according to the invention can be determined with the aid of the following assay:
mTOR (human) was incubated with 50 mM HEPES pH 7.5, 1 mM EGTA, 0.01% Tween 20, 2 mg/ml of the substrate, 3 mM MnCl2 and [γ-^33P-ATP] (specific activity approximately 500 cpm/pmol, concentration as necessary). The reaction was initiated by addition of MgATP solution. After incubation at room temperature for 40 minutes, the reaction was stopped by addition of 3% phosphoric acid. 10 μl of the reaction solution were then transferred dropwise onto a P30 filtermat and washed three times for 5 min in 75 mM phosphoric acid and once in methanol, dried and evaluated by means of liquid scintillation counting.

PI3K (p120γ) (human) = PI3K (p120γ) (human) (Homo sapiens (Human), UniProt P48736); test: PI3K (p120γ) (human), non-radioactive assay (HTRF); assay type: biochemical; settings: ATM versus PI3Kgamma
Description: PI3K (p120γ) (Human), Non-Radioactive Assay
as §1, with “(p120γ)” for “p110β/p85α”, “nm). • MgATP=magnesium 5′-O-[hydroxy({[(hydroxyphosphinato)oxy]phosphinato}oxy)phosphoryl]adenosine • MgCl2=magnesium dichloride • EGTA=ethylene glycol bis(aminoethyl ether) N,N,N′,N′-tetraacetic acid • Tween 20=polysorbate 20 Medicament/Pharmaceutical Composition” for “nm).”

PI3K p110δ/p85α (human) = PI3K p110δ/p85α (human) (Homo sapiens (Human), UniProt O00329); test: PI3K p110δ/p85α (human), non-radioactive assay (HTRF); assay type: biochemical; settings: ATM versus PI3Kdelta
Description: PI3K p110δ/p85α (Human), Non-Radioactive Assay
as §1, with “p110δ/p85α” for “p110β/p85α”

PI3K p110α/p85α (human) = PI3K p110α/p85α (human) (Homo sapiens (Human), UniProt P42336); test: PI3K p110α/p85α (human), non-radioactive assay (HTRF); assay type: biochemical; settings: ATM versus PI3Kalpha
Description: PI3K p110α/p85α (Human), Non-Radioactive Assay
as §1, with “p110α/p85α” for “p110β/p85α”, “After” for “After an”, “incubation” for “incubation time of 30 min”, “temperature for 40 minutes,” for “temperature,”

Sequence of PI3K (p120γ) (human) (P48736 whole entry): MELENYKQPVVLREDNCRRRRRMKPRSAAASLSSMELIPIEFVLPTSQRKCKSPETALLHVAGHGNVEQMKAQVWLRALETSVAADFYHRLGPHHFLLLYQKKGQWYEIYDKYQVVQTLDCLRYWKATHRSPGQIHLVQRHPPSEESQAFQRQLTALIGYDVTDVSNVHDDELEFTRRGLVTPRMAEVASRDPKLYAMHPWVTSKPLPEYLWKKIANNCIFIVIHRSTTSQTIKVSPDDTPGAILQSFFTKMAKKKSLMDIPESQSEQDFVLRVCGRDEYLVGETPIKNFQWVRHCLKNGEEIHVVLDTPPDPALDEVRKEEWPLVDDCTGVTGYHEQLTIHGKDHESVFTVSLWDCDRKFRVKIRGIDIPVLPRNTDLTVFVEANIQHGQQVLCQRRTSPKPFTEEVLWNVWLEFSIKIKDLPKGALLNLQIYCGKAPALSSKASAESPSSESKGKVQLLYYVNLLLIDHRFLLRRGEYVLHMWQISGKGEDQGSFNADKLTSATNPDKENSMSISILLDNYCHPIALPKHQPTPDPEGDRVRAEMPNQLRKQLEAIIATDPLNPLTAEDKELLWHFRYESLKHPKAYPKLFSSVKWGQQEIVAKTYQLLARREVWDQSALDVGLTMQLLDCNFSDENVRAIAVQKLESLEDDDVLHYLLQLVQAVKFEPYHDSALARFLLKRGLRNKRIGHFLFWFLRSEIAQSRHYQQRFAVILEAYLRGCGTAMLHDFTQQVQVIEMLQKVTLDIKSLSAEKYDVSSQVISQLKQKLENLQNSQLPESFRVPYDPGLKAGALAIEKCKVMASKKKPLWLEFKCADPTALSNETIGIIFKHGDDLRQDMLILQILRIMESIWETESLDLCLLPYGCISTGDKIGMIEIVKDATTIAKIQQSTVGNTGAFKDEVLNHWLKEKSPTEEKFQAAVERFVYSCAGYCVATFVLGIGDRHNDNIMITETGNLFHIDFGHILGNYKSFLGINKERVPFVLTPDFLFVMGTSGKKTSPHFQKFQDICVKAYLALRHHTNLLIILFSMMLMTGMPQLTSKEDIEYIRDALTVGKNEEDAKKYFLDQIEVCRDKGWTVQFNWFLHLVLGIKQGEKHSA
Sequence of PI3K p110α/p85α (human) (P42336 whole entry): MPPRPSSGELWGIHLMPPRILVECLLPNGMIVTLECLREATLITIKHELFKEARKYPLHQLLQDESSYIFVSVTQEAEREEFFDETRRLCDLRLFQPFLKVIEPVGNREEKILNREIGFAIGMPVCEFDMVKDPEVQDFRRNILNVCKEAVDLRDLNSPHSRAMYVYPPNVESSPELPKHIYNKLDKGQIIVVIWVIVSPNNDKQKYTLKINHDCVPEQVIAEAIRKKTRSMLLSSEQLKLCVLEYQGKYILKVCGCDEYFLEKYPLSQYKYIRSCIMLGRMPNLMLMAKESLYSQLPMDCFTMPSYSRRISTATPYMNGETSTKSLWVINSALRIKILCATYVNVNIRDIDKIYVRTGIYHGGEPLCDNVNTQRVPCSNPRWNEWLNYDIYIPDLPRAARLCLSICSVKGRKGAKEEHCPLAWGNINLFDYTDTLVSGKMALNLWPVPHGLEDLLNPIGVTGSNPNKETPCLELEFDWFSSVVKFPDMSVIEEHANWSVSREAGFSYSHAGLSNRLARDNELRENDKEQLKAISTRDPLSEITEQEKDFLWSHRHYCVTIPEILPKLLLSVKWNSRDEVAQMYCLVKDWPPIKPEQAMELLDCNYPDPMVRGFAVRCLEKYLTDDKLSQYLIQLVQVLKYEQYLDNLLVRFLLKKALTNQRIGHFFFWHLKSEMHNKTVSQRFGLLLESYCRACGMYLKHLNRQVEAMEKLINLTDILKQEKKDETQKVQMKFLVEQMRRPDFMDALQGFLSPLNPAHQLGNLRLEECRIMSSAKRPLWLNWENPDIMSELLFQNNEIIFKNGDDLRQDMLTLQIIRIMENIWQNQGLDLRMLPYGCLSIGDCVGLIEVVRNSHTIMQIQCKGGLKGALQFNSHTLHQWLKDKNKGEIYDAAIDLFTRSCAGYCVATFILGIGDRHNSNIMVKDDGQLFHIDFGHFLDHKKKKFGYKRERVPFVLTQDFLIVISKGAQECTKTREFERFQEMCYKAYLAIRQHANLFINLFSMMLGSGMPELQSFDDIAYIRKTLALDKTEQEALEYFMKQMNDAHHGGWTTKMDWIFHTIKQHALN
Sequence of PI3K p110α/p85α (human) (P27986 whole entry partner): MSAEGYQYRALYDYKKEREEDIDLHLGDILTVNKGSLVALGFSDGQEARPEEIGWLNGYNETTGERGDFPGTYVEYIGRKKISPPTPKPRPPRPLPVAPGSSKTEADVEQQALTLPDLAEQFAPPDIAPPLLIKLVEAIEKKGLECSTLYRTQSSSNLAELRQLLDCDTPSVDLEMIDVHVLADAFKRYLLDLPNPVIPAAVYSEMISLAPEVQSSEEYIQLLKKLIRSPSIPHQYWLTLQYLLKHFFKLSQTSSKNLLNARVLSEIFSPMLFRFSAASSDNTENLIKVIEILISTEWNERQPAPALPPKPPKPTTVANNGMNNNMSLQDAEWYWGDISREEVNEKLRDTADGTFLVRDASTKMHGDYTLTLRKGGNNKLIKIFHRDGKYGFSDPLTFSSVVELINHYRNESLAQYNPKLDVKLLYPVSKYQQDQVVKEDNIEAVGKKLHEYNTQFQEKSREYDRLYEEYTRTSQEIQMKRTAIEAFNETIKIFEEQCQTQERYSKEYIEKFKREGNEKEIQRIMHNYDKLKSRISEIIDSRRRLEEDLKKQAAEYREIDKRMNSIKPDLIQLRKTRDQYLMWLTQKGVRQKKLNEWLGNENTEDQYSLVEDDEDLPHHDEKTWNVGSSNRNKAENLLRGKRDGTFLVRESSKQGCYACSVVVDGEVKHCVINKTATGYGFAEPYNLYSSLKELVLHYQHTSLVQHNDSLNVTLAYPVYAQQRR
Sequence of PI3K p110β/p85α (human) (P42338 whole entry): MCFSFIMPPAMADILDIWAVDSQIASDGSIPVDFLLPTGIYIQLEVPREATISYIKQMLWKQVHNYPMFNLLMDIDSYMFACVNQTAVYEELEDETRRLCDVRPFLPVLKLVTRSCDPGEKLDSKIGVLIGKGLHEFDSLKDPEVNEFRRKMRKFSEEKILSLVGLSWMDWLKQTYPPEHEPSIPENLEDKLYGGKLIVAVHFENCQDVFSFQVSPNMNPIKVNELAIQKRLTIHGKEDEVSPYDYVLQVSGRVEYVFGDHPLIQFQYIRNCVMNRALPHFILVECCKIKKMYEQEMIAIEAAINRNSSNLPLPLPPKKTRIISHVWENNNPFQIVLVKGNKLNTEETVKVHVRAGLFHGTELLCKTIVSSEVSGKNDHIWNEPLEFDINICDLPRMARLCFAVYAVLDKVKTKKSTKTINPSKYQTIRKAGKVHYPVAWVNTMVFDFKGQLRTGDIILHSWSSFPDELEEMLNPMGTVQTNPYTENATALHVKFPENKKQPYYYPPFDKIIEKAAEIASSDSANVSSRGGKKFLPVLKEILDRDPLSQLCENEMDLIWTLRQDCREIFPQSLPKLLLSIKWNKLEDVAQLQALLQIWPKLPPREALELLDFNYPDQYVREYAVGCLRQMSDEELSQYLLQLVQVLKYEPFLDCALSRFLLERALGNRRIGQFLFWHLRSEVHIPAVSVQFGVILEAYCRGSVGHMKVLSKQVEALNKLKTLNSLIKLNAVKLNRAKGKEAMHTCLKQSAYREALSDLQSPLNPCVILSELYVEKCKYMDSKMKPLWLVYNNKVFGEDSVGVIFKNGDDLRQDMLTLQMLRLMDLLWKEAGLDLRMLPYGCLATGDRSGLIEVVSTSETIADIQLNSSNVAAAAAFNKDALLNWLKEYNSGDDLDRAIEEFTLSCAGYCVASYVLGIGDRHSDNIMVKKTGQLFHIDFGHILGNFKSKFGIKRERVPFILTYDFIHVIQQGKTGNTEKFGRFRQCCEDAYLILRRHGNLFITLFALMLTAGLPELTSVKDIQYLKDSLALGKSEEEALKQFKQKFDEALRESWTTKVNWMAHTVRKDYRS
Sequence of PI3K p110β/p85α (human) (P27986 whole entry partner): as the sequence (P27986 whole entry partner) above
Sequence of PI3K p110δ/p85α (human) (O00329 whole entry): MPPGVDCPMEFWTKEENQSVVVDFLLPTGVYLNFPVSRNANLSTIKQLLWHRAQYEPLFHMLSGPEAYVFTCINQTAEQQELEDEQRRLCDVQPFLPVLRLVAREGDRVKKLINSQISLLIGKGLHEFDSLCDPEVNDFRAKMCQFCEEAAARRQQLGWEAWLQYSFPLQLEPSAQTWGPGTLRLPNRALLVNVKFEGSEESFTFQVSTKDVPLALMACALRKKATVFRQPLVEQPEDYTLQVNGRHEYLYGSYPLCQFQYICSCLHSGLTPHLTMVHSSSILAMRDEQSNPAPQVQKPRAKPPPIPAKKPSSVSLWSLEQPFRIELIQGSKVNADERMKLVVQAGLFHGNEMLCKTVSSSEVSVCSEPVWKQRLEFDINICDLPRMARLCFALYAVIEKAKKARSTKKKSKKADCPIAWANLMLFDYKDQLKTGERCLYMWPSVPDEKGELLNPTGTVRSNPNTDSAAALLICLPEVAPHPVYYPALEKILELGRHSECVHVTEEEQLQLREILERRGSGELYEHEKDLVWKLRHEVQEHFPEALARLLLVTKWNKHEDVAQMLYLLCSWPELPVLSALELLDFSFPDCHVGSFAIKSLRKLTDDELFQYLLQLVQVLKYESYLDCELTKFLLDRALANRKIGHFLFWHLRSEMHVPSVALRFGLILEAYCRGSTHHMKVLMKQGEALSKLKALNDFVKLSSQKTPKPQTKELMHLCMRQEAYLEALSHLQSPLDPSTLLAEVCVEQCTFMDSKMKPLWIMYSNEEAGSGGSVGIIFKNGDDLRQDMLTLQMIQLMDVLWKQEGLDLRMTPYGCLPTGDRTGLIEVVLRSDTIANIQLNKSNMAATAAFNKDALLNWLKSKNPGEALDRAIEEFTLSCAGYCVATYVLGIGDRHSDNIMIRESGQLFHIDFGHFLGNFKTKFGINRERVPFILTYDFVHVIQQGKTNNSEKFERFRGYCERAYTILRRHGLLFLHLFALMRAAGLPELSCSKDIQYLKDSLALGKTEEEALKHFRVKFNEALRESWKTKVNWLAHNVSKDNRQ
Sequence of PI3K p110δ/p85α (human) (P27986 whole entry partner): as the sequence (P27986 whole entry partner) above

1-(3,5-Dimethyl-1H-pyrazol- 4-yl)-7-methoxy-3-methyl-8- (1-methyl-1H-pyrazol-4-yl)- 1,3-dihydroimidazo[4,5-c]- quinolin-2-one [Example 118]
IC50 [1]: 200 to 1000 nM
ratio IC50 (ATM):IC50 (PI3Kbeta), selectivity with respect to PI3Kbeta (PI3K p110β/p85α (human)): at least 2000 times
IC50 [2]: < 10 nM
ratio IC50 (ATM):IC50 (mTOR), selectivity with respect to mTOR (mTOR (human)): at least 2000 times

COc1cc2ncc3[nH]c(=O)n(-c4ncc(F)cc4F)c3c2cc1-c1cn(C)nc1C [Example 108, 1-(3,5-Difluoropyridin-2-yl)-8-(1,3-dimethyl-1H-pyrazol-4-yl)-7-methoxy-1,3-dihydroimidazo[4,5-c]-quinolin-2-one]
ratio of IC50 (ATM) and IC50 (PI3Kgamma), selectivity with respect to PI3Kgamma (PI3K (p120γ) (human)): at least 2000 times
ratio of IC50 (ATM) and IC50 (PI3Kdelta), selectivity with respect to PI3Kdelta (PI3K p110δ/p85α (human)): at least 2000 times
ratio IC50 (ATM):IC50 (PI3Kbeta), selectivity with respect to PI3Kbeta (PI3K p110β/p85α (human)): at least 2000 times
ratio of IC50 (ATM) and IC50 (PI3Kalpha), selectivity with respect to PI3Kalpha (PI3K p110α/p85α (human)): at least 2000 times

CCc1cncc(F)c1-n1c(=O)n(C)c2cnc3cc(OC)c(-c4cn[nH]n4)cc3c21 [Example 125, 1-(3-Ethyl-5-fluoropyridin-4-yl)-7-methoxy-3-methyl-8-(2H-1,2,3-triazol-4-yl)-1,3-dihydroimidazo[4,5-c] quinolin-2-one]
ratio of IC50 (ATM) and IC50 (PI3Kgamma), selectivity with respect to PI3Kgamma (PI3K (p120γ) (human)): at least 2000 times
ratio of IC50 (ATM) and IC50 (PI3Kdelta), selectivity with respect to PI3Kdelta (PI3K p110δ/p85α (human)): at least 2000 times
ratio IC50 (ATM):IC50 (PI3Kbeta), selectivity with respect to PI3Kbeta (PI3K p110β/p85α (human)): at least 2000 times
ratio of IC50 (ATM) and IC50 (PI3Kalpha), selectivity with respect to PI3Kalpha (PI3K p110α/p85α (human)): at least 2000 times
ratio IC50 (ATM):IC50 (mTOR), selectivity with respect to mTOR (mTOR (human)): at least 2000 times

COc1cc2ncc3c(c2cc1-c1ccc2nc(C)[nH]c2c1)n(-c1c(F)cncc1OC)c(=O)n3C [Example 136, 1-(3-Fluoro-5-methoxy-pyridin-4-yl)-7-methoxy-3-methyl-8-(2-methyl-3H-benzoimidazol-5-yl)-1,3-dihydroimidazo[4,5-c]-quinolin-2-one]
ratio of IC50 (ATM) and IC50 (PI3Kgamma), selectivity with respect to PI3Kgamma (PI3K (p120γ) (human)): at least 2000 times
ratio IC50 (ATM):IC50 (PI3Kbeta), selectivity with respect to PI3Kbeta (PI3K p110β/p85α (human)): at least 2000 times
ratio IC50 (ATM):IC50 (mTOR), selectivity with respect to mTOR (mTOR (human)): at least 2000 times

[2H]C([2H])([2H])Oc1cncc(F)c1-n1c(=O)n(C)c2cnc3cc(OC)c(-c4cnn(C)c4)cc3c21 [Example 145, 1-[3-Fluoro-5-(trideuterio-methoxy)-4-pyridyl]-7-methoxy-3-methyl-8-(1-methylpyrazol-4-yl)imidazo-[4,5-c]quinolin-2-one]
ratio of IC50 (ATM) and IC50 (PI3Kgamma), selectivity with respect to PI3Kgamma (PI3K (p120γ) (human)): at least 2000 times
ratio of IC50 (ATM) and IC50 (PI3Kdelta), selectivity with respect to PI3Kdelta (PI3K p110δ/p85α (human)): at least 2000 times
ratio IC50 (ATM):IC50 (PI3Kbeta), selectivity with respect to PI3Kbeta (PI3K p110β/p85α (human)): at least 2000 times
ratio IC50 (ATM):IC50 (mTOR), selectivity with respect to mTOR (mTOR (human)): at least 2000 times

COc1ccc(-c2cc3c(cc2OC)ncc2c3n(-c3cn(C)nc3F)c(=O)n2C)cn1 [Example 159, 1-(3-Fluoro-1-methyl-1H-pyrazo1-4-yl)-7-methoxy-8-(6-methoxypyridin-3-yl)-3-methyl-1,3-dihydroimidazo-[4,5-c]quinolin-2-one]
ratio IC50 (ATM):IC50 (PI3Kbeta), selectivity with respect to PI3Kbeta (PI3K p110β/p85α (human)): at least 2000 times
ratio IC50 (ATM):IC50 (mTOR), selectivity with respect to mTOR (mTOR (human)): at least 2000 times

COc1cc2ncc3c(c2cc1-c1cnn(C)c1)n(-c1ncc(OCS(C)(=O)=O)cc1F)c(=O)n3C [Example 201, 1-(3-Fluoro-5-methyl-sulfonylmethoxypyridin-2-yl)-7-methoxy-3-methyl-8-(1-methyl-1H-pyrazol-4-yl)-1,3-dihydroimidazo[4,5-c]-quinolin-2-one]
ratio of IC50 (ATM) and IC50 (PI3Kgamma), selectivity with respect to PI3Kgamma (PI3K (p120γ) (human)): at least 2000 times
ratio of IC50 (ATM) and IC50 (PI3Kdelta), selectivity with respect to PI3Kdelta (PI3K p110δ/p85α (human)): at least 2000 times
ratio IC50 (ATM):IC50 (PI3Kbeta), selectivity with respect to PI3Kbeta (PI3K p110β/p85α (human)): at least 2000 times
ratio of IC50 (ATM) and IC50 (PI3Kalpha), selectivity with respect to PI3Kalpha (PI3K p110α/p85α (human)): at least 2000 times
ratio IC50 (ATM):IC50 (mTOR), selectivity with respect to mTOR (mTOR (human)): at least 2000 times
